Values quoted from earlier work, collected in patent publication US12133903B2, “Oral care article comprising a delivery carrier and solid hydrophilic particles comprising a bleaching agent” (The Procter & Gamble Company, priority 2020, dated 2024).

Settings: in water; supplier data sheet / Safety Data Sheet / Wikipedia

In the case of `NC(N)=O.OO` [Urea Hydrogen Peroxide Adduct], the Solubility is given as 80 parts per 100 parts of water.
